From the NIST ThermoML archive (doi:10.1021/je500498m)

Test: xn = mol fraction of the nth substance listed
Conditions: for speed of sound: 100 kPa, Sing-around technique in a fixed-path interferometer; for speed of sound / viscosity / mass density: Liquid; for viscosity / mass density: 101 kPa; for viscosity: Falling or rolling sphere viscometry; for mass density: Vibrating tube method; for surface tension liquid-gas: 294.4 K, Pendant drop shape

CCCCCCCCCCCCCCCC [hexadecane] + CCc1ccccc1
Conditions | mass density [kg/m3] | speed of sound [m/s] | viscosity [mPa·s]
293.15 K, x2 = 0 | 773.49 | 1357.3 | 3.44
293.15 K, x2 = 0.1007 | 777.15 | 1353.4 | 3.01
293.15 K, x2 = 0.2 | 781.37 | 1349.4 | 2.63
293.15 K, x2 = 0.3002 | 786.28 | 1345.2 | 2.28
293.15 K, x2 = 0.4013 | 792.08 | 1340.7 | 1.96
293.15 K, x2 = 0.5002 | 798.81 | 1336.7 | 1.69
293.15 K, x2 = 0.6001 | 806.86 | 1333.1 | 1.43
293.15 K, x2 = 0.7002 | 816.95 | 1330.4 | 1.21
293.15 K, x2 = 0.8001 | 829.46 | 1329.3 | 1.01
293.15 K, x2 = 0.9 | 845.47 | 1331.5 | 0.83
303.15 K, x2 = 0 | 766.55 | 1320 | 2.72
303.15 K, x2 = 0.1007 | 770.16 | 1316 | 2.42
303.15 K, x2 = 0.2 | 774.31 | 1312 | 2.14
303.15 K, x2 = 0.3002 | 779.13 | 1307.8 | 1.88
303.15 K, x2 = 0.4013 | 784.83 | 1303.1 | 1.64
303.15 K, x2 = 0.5002 | 791.42 | 1298.9 | 1.42
303.15 K, x2 = 0.6001 | 799.32 | 1295 | 1.23
303.15 K, x2 = 0.7002 | 809.21 | 1291.9 | 1.05
303.15 K, x2 = 0.8001 | 821.46 | 1291.1 | 0.88
303.15 K, x2 = 0.9 | 837.13 | 1291.3 | 0.73
313.15 K, x2 = 0 | 759.63 | 1283.3 | –
313.15 K, x2 = 0.1007 | 763.17 | 1279.2 | –
313.15 K, x2 = 0.2 | 767.24 | 1275.1 | –
313.15 K, x2 = 0.3002 | 771.97 | 1270.8 | –
313.15 K, x2 = 0.4013 | 777.56 | 1266 | –
313.15 K, x2 = 0.5002 | 784.01 | 1261.6 | –
313.15 K, x2 = 0.6001 | 791.75 | 1257.4 | –
313.15 K, x2 = 0.7002 | 801.42 | 1253.8 | –
313.15 K, x2 = 0.8001 | 813.41 | 1251.3 | –
313.15 K, x2 = 0.9 | 828.73 | 1251.6 | –
323.15 K, x2 = 0 | 752.71 | 1247.3 | 1.82
323.15 K, x2 = 0.1007 | 756.18 | 1243.2 | 1.65
323.15 K, x2 = 0.2 | 760.17 | 1239 | 1.49
323.15 K, x2 = 0.3002 | 764.8 | 1234.5 | 1.34
323.15 K, x2 = 0.4013 | 770.27 | 1229.4 | 1.19
323.15 K, x2 = 0.5002 | 776.58 | 1224.8 | 1.05
323.15 K, x2 = 0.6001 | – | 1220.3 | 0.92
323.15 K, x2 = 0.7002 | – | 1216.2 | 0.8
323.15 K, x2 = 0.8001 | – | 1213.1 | 0.68
323.15 K, x2 = 0.9 | – | 1212.5 | 0.57

Conditions | surface tension liquid-gas [mN/m]
x2 = 0 | 27.3
x2 = 0.2 | 27.4
x2 = 0.4013 | 27.5
x2 = 0.5002 | 27.5
x2 = 0.6001 | 27.8
x2 = 0.7002 | 28
x2 = 0.8001 | 28.2
x2 = 0.9 | 28.5
